Measurements reported in patent publication US20250230155A1 (Vanderbilt University, priority 2021, published 2025).

Target: T1, human mAChR M4 (Homo sapiens, UniProt P08173)
T1 construct: expressed in transfected cells
T1 sequence (P08173 1-479): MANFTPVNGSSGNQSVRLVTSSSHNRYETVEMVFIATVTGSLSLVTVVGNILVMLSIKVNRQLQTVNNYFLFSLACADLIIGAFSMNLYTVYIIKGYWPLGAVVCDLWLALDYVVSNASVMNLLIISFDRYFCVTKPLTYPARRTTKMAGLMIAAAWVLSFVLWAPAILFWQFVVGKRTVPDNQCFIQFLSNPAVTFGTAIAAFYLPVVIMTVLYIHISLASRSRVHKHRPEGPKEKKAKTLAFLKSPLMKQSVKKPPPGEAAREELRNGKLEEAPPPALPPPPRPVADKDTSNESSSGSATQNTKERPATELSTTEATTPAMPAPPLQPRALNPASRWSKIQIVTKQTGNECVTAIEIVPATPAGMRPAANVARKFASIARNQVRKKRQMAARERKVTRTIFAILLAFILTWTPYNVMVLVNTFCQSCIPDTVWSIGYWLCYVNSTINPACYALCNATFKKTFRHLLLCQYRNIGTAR
Experiment: mAChR M4 cell-based functional assay (calcium mobilization, CHO-K1 hM4-Gqi5 cells)
Settings: for Emax at 30 µM: CHO-K1, % ACh maximum at 30 μM, human M4; for EC50: positive allosteric modulator activity, increase in the EC20 acetylcholine response, CHO-K1 hM4-Gqi5 cells, read-out: Human M4 EC50
Protocol: Human and rat M4 cDNAs, along with the chimeric G protein Gqi5, were transfected into Chinese hamster ovary (CHO-K1) cells purchased from the American Type Culture Collection using Lipofectamine2000. hM4-Gqi5 cells were grown in Ham's F-12 medium containing 10% heat-inactivated fetal bovine serum (FBS), 20 mM HEPES, 50 μg/mL G418 sulfate, and 500 μg/mL Hygromycin B. rM4-Ggi5 cells were grown in DiVEM containing 10% heat-inactivated FBS, 20 mM THEPES, 400 μμg/mL G418 sulfate, and 500 μμg/mL Hygromycin B.
For high throughput measurement of agonist-evoked increases in intracellular calcium, CHO-K1 cells stably expressing muscarinic receptors were plated in growth medium lacking G418 and hygromycin at 15,000 cells/20 μL/well in Greiner 384-well black-walled, tissue culture (TC)-treated, clear-bottom plates (VWR). Cells were incubated overnight at 37° C. and 5% CO2. The next day, cells were washed using an ELX 405 (BioTek) with assay buffer; the final volume was then aspirated to 20 μL. Next, 20 μL of a […] of Fluo-4/acetoxymethyl ester (Invitrogen, Carlsbad, CA), prepared as a 2.3 mM stock in DMSO and mixed in a 1:1 ratio with 10% (w/v) Pluronic F-127 and diluted in assay buffer, was added to the wells and the cell plates were incubated for 50 min at 37° C. and 5% C02. Dye was removed by washing with the ELX 405 and the final volume was aspirated to 20 μL. Compound master plates were formatted in an 11 point concentration-response curve (CRC) format (1:3 dilutions) in 100% DMSO with a starting concentration of 10 mM using a BRAVO liquid handler (Agilent). Test compound CRCs were then transferred to daughter plates (240 nL) using the Echo acoustic plate reformatter (Labcyte, Sunnyvale, CA) and then diluted into assay buffer (40 μL) to a 2× stock using a Thermo Fisher Combi (Thermo Fisher Scientific, Waltham, MA).
Calcium flux was measured using the Functional Drug Screening System (FDSS) 6000 or 7000 (Hamamatsu Corporation, Tokyo, Japan) as an increase in the fluorescent static ratio. Compounds were applied to cells (20 μL, 2×) using the automated system of the FDSS at 2-4 seconds into the protocol and the data were collected at 1 Hz. At 144 seconds, 10 μL of an EC20 concentration of the muscarinic receptor agonist acetylcholine was added (5×), followed by the addition of 12 μL of an EC80 concentration of acetylcholine at the 230 second time point (5×). Agonist activity was analyzed as a concentration-dependent increase in calcium mobilization upon compound addition. Positive allosteric modulator activity was analyzed as a concentration-dependent increase in the EC20 acetylcholine response. Antagonist activity was analyzed as a concentration-dependent decrease in the EC80 acetylcholine response. Concentration-response curves were generated using a four-parameter logistical equation in XLFit curve fitting software (IDBS, Bridgewater, NJ) for Excel (Microsoft, Redmond, WA) or Prism (GraphPad Software, Inc., San Diego, CA).
Compounds were synthesized as described above. Activity (EC50 and Emax) was determined in the mAChR M4 cell-based functional assay as described above and the data are shown in Table 2. The compound number corresponds to the compound numbers used in Table 1.

Emax at 30 µM [%] | EC50 [nM] | Compound
72 | 817 | Cc1c(C#N)nnc(N2CCc3ncc(-c4ccc(N5CC6CC5CO6)nc4)cc3C2)c1C (stereo not drawn) [Example 333, 6-(3-(6-(2-oxa-5-azabicyclo[2.2.1]heptan-5-yl)pyridin-3-yl)-7,8-dihydro-1,6-naphthyridin-6(5H)-yl)-4,5-dimethylpyridazine-3-carbonitrile]
60 | 582 | Cc1c(C#N)nnc(N2CCc3ncc(-c4ccc(F)nc4)cc3C2)c1C [Example 334, 6-(3-(6-fluoropyridin-3-yl)-7,8-dihydro-1,6-naphthyridin-6(5H)-yl)-4,5-dimethylpyridazine-3-carbonitrile]
41 | 386 | Cc1c(C#N)nnc(N2CCc3ncc(-c4ccc(N5CCN(C6CC6)CC5)nc4)cc3C2)c1C [Example 335, 6-(3-(6-(4-cyclopropylpiperazin-1-yl)pyridin-3-yl)-7,8-dihydro-1,6-naphthyridin-6(5H)-yl)-4,5-dimethylpyridazine-3-carbonitrile]
49 | 258 | Cc1cc(C#N)cnc1N1CCc2ncc(-c3ccnc(C#N)c3)cc2C1 [Example 336, 4-(6-(5-cyano-3-methylpyridin-2-yl)-5,6,7,8-tetrahydro-1,6-naphthyridin-3-yl)picolinonitrile]
71 | 270 | Cc1cc(C#N)cnc1N1CCc2ncc(-c3cc(F)ncc3F)cc2C1 [Example 337, 6-(3-(2,5-difluoropyridin-4-yl)-7,8-dihydro-1,6-naphthyridin-6(5H)-yl)-5-methylnicotinonitrile]
91 | 315 | COc1cc(-c2cnc3c(c2)CN(c2ncc(C#N)cc2C)CC3)ccn1 [Example 338, 6-(3-(2-methoxypyridin-4-yl)-7,8-dihydro-1,6-naphthyridin-6(5H)-yl)-5-methylnicotinonitrile]
90 | 277 | Cc1cc(C#N)cnc1N1CCc2ncc(-c3ccnc(C4CC4)c3)cc2C1 [Example 339, 6-(3-(2-cyclopropylpyridin-4-yl)-7,8-dihydro-1,6-naphthyridin-6(5H)-yl)-5-methylnicotinonitrile]
81 | 7550 | Cc1cc(C#N)cnc1N1CCc2ncc(-c3ccnc(F)c3)cc2C1 [Example 340, 6-(3-(2-fluoropyridin-4-yl)-7,8-dihydro-1,6-naphthyridin-6(5)-yl)-5-methylnicotinonitrile]
49 | 1490 | COc1cc(-c2cnc3c(c2)CN(c2ncc(C#N)cc2C)CC3)c(Cl)cn1 [Example 341, 6-(3-(5-chloro-2-methoxypyridin-4-yl)-7,8-dihydro-1,6-naphthyridin-6(5H)-yl)-5-methylnicotinonitrile]
86 | 64 | Cc1c(C#N)nnc(N2CCc3ncc(N4CCCn5nccc54)cc3C2)c1C [Example 342, 6-(3-(6,7-dihydropyrazolo[1,5-a]pyrimidin-4(5H)-yl)-7,8-dihydro-1,6-naphthyridin-6(5H)-yl)-4,5-dimethylpyridazine-3-carbonitrile]
97 | 226 | Cc1cc(C#N)cnc1N1CCc2ncc(-n3ccnc3)cc2C1 [Example 343, 6-(3-(1H-imidazol-1-yl)-7,8-dihydro-1,6-naphthyridin-6(5H)-yl)-5-methylnicotinonitrile]
88 | 380 | Cc1cc(C#N)cnc1N1CCc2ncc(-n3cccn3)cc2C1 [Example 344, 6-(3-(1H-pyrazol-1-yl)-7,8-dihydro-1,6-naphthyridin-6(5H)-yl)-5-methylnicotinonitrile]
86 | 341 | Cc1cc(C#N)cnc1N1CCc2ncc(-n3nccc3C)cc2C1 [Example 345, 5-methyl-6-(3-(5-methyl-1H-pyrazol-1-yl)-7,8-dihydro-1,6-naphthyridin-6(5H)-yl)nicotinonitrile]
88 | 1300 | Cc1cc(C)n(-c2cnc3c(c2)CN(c2ncc(C#N)cc2C)CC3)n1 [Example 346, 6-(3-(3,5-dimethyl-1H-pyrazol-1-yl)-7,8-dihydro-1,6-naphthyridin-6(5H)-yl)-5-methylnicotinonitrile]
82 | 992 | Cc1cc(C#N)cnc1N1Cc2cc(C(F)(F)F)cnc2C(C)C1 (stereo not drawn) [Example 347, 5-methyl-6-(8-methyl-3-(trifluoromethyl)-7,8-dihydro-1,6-naphthyridin-6(5H)-yl)nicotinonitrile]
70 | 331 | Cc1c(C#N)nnc(N2Cc3cc(C(F)(F)F)cnc3C(C)C2)c1C (stereo not drawn) [Example 348, 4,5-dimethyl-6-(8-methyl-3-(trifluoromethyl)-7,8-dihydro-1,6-naphthyridin-6(5H)-yl)pyridazine-3-carbonitrile]
72 | 1120 | Cc1ccc(Oc2cnc3c(c2)CN(c2ncc(C#N)cc2C)CC3)c(F)c1 [Example 349, 6-(3-(2-fluoro-4-methylphenoxy)-7,8-dihydro-1,6-naphthyridin-6(5H)-yl)-5-methylnicotinonitrile]
84 | 547 | Cc1cc(C#N)cnc1N1CCc2ncc(Oc3cccc(F)c3F)cc2C1 [Example 350, 6-(3-(2,3-difluorophenoxy)-7,8-dihydro-1,6-naphthyridin-6(5H)-yl)-5-methylnicotinonitrile]
88 | 160 | Cc1cc(C#N)cnc1N1CCc2ncc(Oc3cc(F)ccc3F)cc2C1 [Example 351, 6-(3-(2,5-difluorophenoxy)-7,8-dihydro-1,6-naphthyridin-6(5H)-yl)-5-methylnicotinonitrile]
64 | 233 | Cc1c(C#N)nnc(N2CCc3ncc(Oc4cccc(F)c4F)cc3C2)c1C [Example 352, 6-(3-(2,3-difluorophenoxy)-7,8-dihydro-1,6-naphthyridin-6(5H)-yl)-4,5-dimethylpyridazine-3-carbonitrile]
73 | 126 | Cc1c(C#N)nnc(N2CCc3ncc(Oc4cc(F)ccc4F)cc3C2)c1C [Example 353, 6-(3-(2,5-difluorophenoxy)-7,8-dihydro-1,6-naphthyridin-6(5H)-yl)-4,5-dimethylpyridazine-3-carbonitrile]
64 | 271 | Cc1c(C#N)nnc(N2CCc3ncc(Oc4ccc(F)cc4F)cc3C2)c1C [Example 354, 6-(3-(2,4-difluorophenoxy)-7,8-dihydro-1,6-naphthyridin-6(5H)-yl)-4,5-dimethylpyridazine-3-carbonitrile]
81 | 297 | Cc1cc(C#N)nnc1N1CCc2ncc(Oc3ccc(F)cc3F)cc2C1 [Example 355, 6-(3-(2,4-difluorophenoxy)-7,8-dihydro-1,6-naphthyridin-6(5H)-yl)-5-methylpyridazine-3-carbonitrile]
83 | 276 | Cc1cc(C#N)nnc1N1CCc2ncc(Oc3cccc(F)c3F)cc2C1 [Example 356, 6-(3-(2,3-difluorophenoxy)-7,8-dihydro-1,6-naphthyridin-6(5H)-yl)-5-methylpyridazine-3-carbonitrile]
